Literature values in US12070034B2, “Synergistic herbicidal combinations” (UPL LTD, priority 2017, dated 2024).

Details: acid form, before neutralisation with ammonium phosphate dibasic

Compound: O=C(O)COc1ccc(Cl)cc1Cl [2,4-D acid]
- solubility: 311 mg/I

Compound: Nc1c(Cl)c(Cl)nc(C(=O)O)c1Cl [Picloram acid]
- solubility: 560 mg/I
